Common to all, as to format: in vivo
Assay [1] concerns mice. Description: General behaviour of mice. The note with it: 100 mg/kg i.p. and, resp., 200 mg/kg p.o., SMA = spontaneous motor activity. How it is done: These compounds decrease the spontaneous motor activity and potentiate the effect of narcotics.
(§1) The tests were performed on mice. In the examination of the general behaviour the animals were treated intraperitoneally with 100 mg/kg or orally with 200 mg/kg of the compound in question. The fighting behaviour test was performed according to the method of Tedeschi et al. (J. Pharm. Exp. Ther. 25, 28 /1959/). The observations concerning the general behaviour of the animals and the ED50 values obtained in the fighting behaviour test are summarized in Table 1. In these tests 1-(3,4-dimethoxyphenyl)-4-methyl-5-ethyl-7,8-dimethoxy-5H-2,3-benzodiazepine (Grandaxin) was applied as reference substance.

For assay [2], the system named is mice. Description: Fighting behaviour test on mice (method of Tedeschi et al.). The following applies: for ED50: Mus musculus, po, mice; for "Fighting behaviour" test on mice, relative activity: relative to Grandaxin (1.0), from ED50 p.o. The protocol:
as §1

Assay [3] concerns mice. Description: Narcosis potentiating activity on mice (sodium hexobarbital narcosis). The note with it: for Narcosis potentiating activity on mice, Relative activity: relative to Grandaxin (1.0); for change in vivo at 50 mg/kg / change in vivo at 25 mg/kg / change in vivo at 12.5 mg/kg / change in vivo at 100 mg/kg: Mus musculus, po, 30 minutes before 50 mg/kg sodium hexobarbital i.v., prolongation vs control, read-out: Narcosis potentiating activity on mice, Increase, %. The protocol:
When studying the narcosis potentiating effect, the benzodiazepine compounds were administered to mice in oral dosages of 12.5, 25, 50 or 100 mg/kg, and 30 minutes later 50 mg/kg of sodium hexobarbital were injected intravenously into the animals. The percentage prolongation of the narcosis period, compared to the value observed in the control group treated with sodium hexobarbital alone, was calculated. In these tests Grandaxin was applied again as reference substance.

“Also recorded” adds a separate entry of the source.

As usually defined, the ED50 is the midpoint of the dose-response relation. A higher ED50 goes with a need for a large dose. `CCC1C(C)=NN=C(c2ccc(OC)cc2)c2cc(OC)c(OC)cc21` (stereo not shown) [Example 4, 1-(4-methoxyphenyl)-4-methyl-5-ethyl-7,8-dimethoxy-5H-2,3-benzodiazepine]: in the assay with mice [1], the General behaviour entry is “Decrease of SMA”. In the assay with mice [2], the ED50 is 40 mg/kg and the “"Fighting behaviour" test on mice, relative activity” value was 1.6. In the assay with mice [3] (50 mg/kg p.o.), the “Narcosis potentiating activity on mice, Relative activity” value worked out at 2.17 and the change in vivo at 50 mg/kg is 248%.

For the molecule `CCC1C(C)=NN=C(c2ccccc2C)c2cc(OC)c(OC)cc21` (stereo not shown) [Example 7, 1-(2-tolyl)-4-methyl-5-ethyl-7,8-dimethoxy-5H-2,3-benzodiazepine], in the assay on mice [3] (25 mg/kg p.o.), the “Narcosis potentiating activity on mice, Relative activity” value was determined as 3.71 and the change in vivo at 25 mg/kg was determined as 301%.

`CCCC1C(C)=NN=C(c2ccc(OC)c(OC)c2)c2cc(OC)c(OC)cc21.O` (stereo not shown) [Example 10, 1-(3,4-dimethoxyphenyl)-4-methyl-5-n-propyl-7,8-dimethoxy-5H-2,3-benzodiazepine hydrate]: in the assay with mice [3] (25 mg/kg p.o.), the “Narcosis potentiating activity on mice, Relative activity” value is on record as 1.23 and the change in vivo at 25 mg/kg amounted to 100%. Further, in the assay on mice [3] (50 mg/kg p.o.), the “Narcosis potentiating activity on mice, Relative activity” value is 1.62 and the change in vivo at 50 mg/kg turned out to be 185%.

Take `CCC1=NN=C(c2ccc(OC)c(OC)c2)c2cc(OC)c(OC)cc2C1CC` (stereo not shown) [Example 11, 1-(3,4-dimethoxyphenyl)-4,5-diethyl-7,8-dimethoxy-5H-2,3-benzodiazepine]: in the assay on mice [3] (25 mg/kg p.o.), the “Narcosis potentiating activity on mice, Relative activity” value came out at 1.65 and the change in vivo at 25 mg/kg is 134%. For the same molecule, in the assay with mice [3] (50 mg/kg p.o.), the “Narcosis potentiating activity on mice, Relative activity” value is reported as 1.43 and the change in vivo at 50 mg/kg stood at 163%.

Take `CCC1C(C)=NN=C(c2ccccc2F)c2cc(OC)c(OC)cc21` (stereo not shown) [Example 14, 1-(2-fluorophenyl)-4-methyl-5-ethyl-7,8 dimethoxy-5H-2,3-benzodiazepine]: in the assay with mice [3] (12.5 mg/kg p.o.), the “Narcosis potentiating activity on mice, Relative activity” value turned out to be 8.65 and the change in vivo at 12.5 mg/kg is 147%. In addition, in the assay with mice [3] (25 mg/kg p.o.), the “Narcosis potentiating activity on mice, Relative activity” value was 3.16 and the change in vivo at 25 mg/kg turned out to be 256%. Moreover, in the assay with mice [3] (50 mg/kg p.o.), the “Narcosis potentiating activity on mice, Relative activity” value worked out at 6.57 and the change in vivo at 50 mg/kg turned out to be 750%.

As to `CCC1C(C)=NN=C(c2ccccc2Cl)c2cc(OC)c(OC)cc21` (stereo not shown) [Example 18, 1-(2-chlorophenyl)-4-methyl-5-ethyl-7,8-dimethoxy-5H-2,3-benzodiazepine], in the assay on mice [1], the General behaviour entry is recorded as “Strong decrease of SMA”. In the assay on mice [2], the ED50 is 40 mg/kg and the “"Fighting behaviour" test on mice, relative activity” value is 1.6. In addition, in the assay with mice [3] (12.5 mg/kg p.o.), the “Narcosis potentiating activity on mice, Relative activity” value is 9.41 and the change in vivo at 12.5 mg/kg is 160%. In the assay with mice [3] (25 mg/kg p.o.), the “Narcosis potentiating activity on mice, Relative activity” value is 4.65 and the change in vivo at 25 mg/kg came out at 377%. Moreover, the “Narcosis potentiating activity on mice, Relative activity” value in the assay on mice [3] (50 mg/kg p.o.) was 13.33.

With `CCC1C(C)=NN=C(c2ccccc2)c2cc(OC)c(OC)cc21` (stereo not shown) [Example 22, 1-phenyl-4-methyl-5-ethyl-7,8-dimethoxy-5H-2,3-benzodiazepine], the General behaviour entry in the assay on mice [1] is recorded as “Decrease of SMA; also recorded: catalepsy”. Moreover, in the assay on mice [2], the ED50 came out at 35 mg/kg and the “"Fighting behaviour" test on mice, relative activity” value is 1.8. Moreover, in the assay on mice [3] (25 mg/kg p.o.), the “Narcosis potentiating activity on mice, Relative activity” value amounted to 2.23 and the change in vivo at 25 mg/kg worked out at 181%. Besides, in the assay with mice [3] (50 mg/kg p.o.), the “Narcosis potentiating activity on mice, Relative activity” value came out at 3.20 and the change in vivo at 50 mg/kg was determined as 364%.

For the molecule `CCC1C(C)=NN=C(c2ccc(O)c(OC)c2)c2cc(OC)c(OC)cc21` (stereo not shown) [Example 24, 1-(3-methoxy-4-hydroxyphenyl)-4-methyl-5-ethyl-7,8-dimethoxy-5H-2,3-benzodiazepine], in the assay on mice [3] (50 mg/kg p.o.), the “Narcosis potentiating activity on mice, Relative activity” value stood at 1.16 and the change in vivo at 50 mg/kg worked out at 132%.

As for `CCC1C(C)=NN=C(c2ccc(OC)c(OC)c2)c2cc(OC)c(OC(C)C)cc21` (stereo not shown) [Example 33, 1-(3,4-dimethoxyphenyl)-4-methyl-5-ethyl-7-isopropoxy-8-methoxy-5H-2,3-benzodiazepine], in the assay with mice [3] (25 mg/kg p.o.), the “Narcosis potentiating activity on mice, Relative activity” value stood at 3.01 and the change in vivo at 25 mg/kg was 244%. In addition, in the assay on mice [3] (50 mg/kg p.o.), the “Narcosis potentiating activity on mice, Relative activity” value was 3.90 and the change in vivo at 50 mg/kg worked out at 445%.

For `CCC(C)Oc1cc2c(cc1OC)C(c1ccc(OC)c(OC)c1)=NN=C(C)C2CC` (stereo not shown) [Example 35, 1-(3,4-dimethoxyphenyl)-4-methyl-5-ethyl-7-sec.butoxy-8-methoxy-5H-2,3-benzodiazepine], the General behaviour result with mice [1] is on record as “Decrease of SMA”. Further, in the assay on mice [2], the 50% effect level (ED50) was put at a dose of 60 mg/kg and the “"Fighting behaviour" test on mice, relative activity” value is recorded as 1.1. In the assay on mice [3] (25 mg/kg p.o.), the “Narcosis potentiating activity on mice, Relative activity” value is 1.11 and the change in vivo at 25 mg/kg turned out to be 90%. Further, in the assay with mice [3] (50 mg/kg p.o.), the “Narcosis potentiating activity on mice, Relative activity” value is 1.52 and the change in vivo at 50 mg/kg stood at 173%. Further, in the assay on mice [3] (100 mg/kg p.o.), the “Narcosis potentiating activity on mice, Relative activity” value was 3.26 and the change in vivo at 100 mg/kg is 780%.

With `CCOc1cc2c(cc1OC)C(c1ccc(OC)c(OC)c1)=NN=C(C)C2CC` (stereo not shown) [Example 36, 1-(3,4-dimethoxyphenyl)-4-methyl-5-ethyl-7-ethoxy-8-methoxy-5H-2,3-benzodiazepine], in the assay with mice [3] (25 mg/kg p.o.), the “Narcosis potentiating activity on mice, Relative activity” value stood at 1.62 and the change in vivo at 25 mg/kg worked out at 132%. Further, in the assay on mice [3] (50 mg/kg p.o.), the “Narcosis potentiating activity on mice, Relative activity” value turned out to be 2.44 and the change in vivo at 50 mg/kg came out at 278%.

`CCCOc1cc2c(cc1OC)C(c1ccc(OC)c(OC)c1)=NN=C(C)C2CC` (stereo not shown) [Example 37, 1-(3,4-dimethoxyphenyl)-4-methyl-5-ethyl-7-n-propoxy-8-methoxy-5H-2,3-benzodiazepine]: in the assay with mice [1], the General behaviour result was “Strong decrease of SMA”. Moreover, in the assay on mice [2], it took a dose of 40 mg/kg to reach the 50% effect level (ED50) and the “"Fighting behaviour" test on mice, relative activity” value is recorded as 1.6.

On to `COc1cc2c(cc1OC)C(c1cccc(Cl)c1)=NN=C(C)C2` [Example 39, 1-(3-Chlorophenyl)-4-methyl-7,8-dimethoxy-5H-2,3-benzodiazepine], for which the General behaviour entry with mice [1] is listed as “Strong decrease of SMA”. In the assay with mice [2], it took a dose of 16 mg/kg to reach the 50% effect level (ED50) and the “"Fighting behaviour" test on mice, relative activity” value stood at 4.0. In the assay on mice [3] (12.5 mg/kg p.o.), the “Narcosis potentiating activity on mice, Relative activity” value turned out to be 7.94 and the change in vivo at 12.5 mg/kg was found to be 135%. Further, in the assay with mice [3] (25 mg/kg p.o.), the “Narcosis potentiating activity on mice, Relative activity” value was found to be 4.25 and the change in vivo at 25 mg/kg came out at 344%.

Take `COc1cc2c(cc1OC)C(C)C(C)=NN=C2c1cccc(Cl)c1` (stereo not shown) [Example 40, 1-(3-Chlorophenyl)-4,5-dimethyl-7,8-dimethoxy-5H-2,3-benzodiazepine]: the General behaviour result with mice [1] was “Decrease of SMA”. In the assay with mice [2], the ED50 turned out to be 50 mg/kg and the “"Fighting behaviour" test on mice, relative activity” value was 1.3. In addition, in the assay with mice [3] (50 mg/kg p.o.), the “Narcosis potentiating activity on mice, Relative activity” value turned out to be 0.79 and the change in vivo at 50 mg/kg was 90%. In the assay on mice [3] (100 mg/kg p.o.), the “Narcosis potentiating activity on mice, Relative activity” value stood at 0.91 and the change in vivo at 100 mg/kg came to 218%.

For the molecule `COc1cc2c(cc1OC)C(c1cccc(F)c1)=NN=C(C)C2` [Example 41, 1-(3-Fluorphenyl)-4-methyl-7,8-dimethoxy-5H-2,3-benzodiazepine], the General behaviour result in the assay with mice [1] is given as “Decrease of SMA”. Moreover, in the assay on mice [2], the 50% effect level (ED50) was put at a dose of 37 mg/kg and the “"Fighting behaviour" test on mice, relative activity” value is 1.7. Also, in the assay with mice [3] (50 mg/kg p.o.), the “Narcosis potentiating activity on mice, Relative activity” value is given as 1.80 and the change in vivo at 50 mg/kg came to 205%. In the assay on mice [3] (100 mg/kg p.o.), the “Narcosis potentiating activity on mice, Relative activity” value was 1.60 and the change in vivo at 100 mg/kg amounted to 383%.

These data come from patent publication US4322346A, “5H-2,3-Benzodiazepine derivatives” (priority 1978, dated 1982).
